Data taken from patent publication US6077826A, “Synthetic macromolecular channel assembly for transport of chloride ions through epithelium useful in treating cystic fibrosis” (Kansas State University Research Foundation, priority 1998, dated 2000).

Experiments:
[1] = system: C-K4 -M2GlyR-generated (SEQ ID NO: 7) ISC across MDCK monolayers; assay: Effect of Cl- transport inhibitors on C-K4-M2GlyR-generated Isc across MDCK monolayers; assay type: cell-based, canine; settings: for fraction of stimulated current remaining: four monolayers
Method: Electrical measurements. MDCK cells (2.5×10^5) were plated on permeable supports (Snapwell, 12 mm dia.; Costar Corp), coated with a mixture of types I and III collagen (ICN, Costa Mesa, Ca.). The Snapwell supports were placed in a 6 well culture plate containing DME/F12+P/S and 1% FCS (0.4 mL in the upper part and 5 mL in the lower). MDCK monolayers were allowed to reach confluency and after 5 days of growth were mounted in Using chambers designed for cell culture (Costar). The position of the monolayer and the supporting membrane separated the apical and the basolateral compartments. Both sides of the monolayers were bathed in 5 mL of a Ringer's solution containing (in mM); 147 Na^+, 119 Cl^-, 20 HCO3^-, 6 alanine, 5 K^+, 5 acetate, 5 glucose, 4 lactate, 2.5 HPO4^- 1.2 Mg^+2, 1.2 SO4^-2 1 citrate, 0.5 butyric acid and 14 raffinose. The media in each half-chamber was circulated by a bubble-lift method with a gas mixture of 95% O2 /5% CO2 and maintained at 37° C. In experiments in which we removed chloride from the Ringer's solution, the molar equivalent of cyclamate was used.
The transepithelial voltage was measured using glass capillary tubes containing a plug of 5% agar in 3 M KCl and situated near each side of the cell layer. The glass tube was filled above the agar plug with 3 M KCl and Ag/AgCl electrodes were inserted into the KCI. Current electrodes consisted of a coil of platinum wire (30 gauge) located at the ends of each half-chamber. Transepithelial potential (Vtc); the short-circuitcurrent (Isc), the current necessary to clamp the voltage to zero; and the transepithelial resistance (Ftc) were measured at five minute intervals with a dual epithelial voltage clamp apparatus (Warner Instrument, Hamden, Conn.) as previously described in detail (Mangoo-Karimet al.; 1995). The average of the last two measurements in each period were used for comparison between pairs of monolayers and among each group.
In electrophysiological studies, niflumic acid, 5-nitro-2-(3-phenylpropylamino)-benzoate (NPPB, provided by SmithKline Beecham), diphenylamine-2-carboxylate (DPC, Fluka Chemika), and glibenclamide were dissolved in 100% ethanol. The maximal final concentration of ethanol, 0.5%, was without effect on Isc.
Effect of Cl^- channel blockers. We tested a variety of Cl^- channel blockers on the Isc generated by apical application of C-K4 -M2GlyR (SEQ ID NO: 7). […]. […] A negative change indicates a reduction in the current. The sensitivity sequence of the peptide-induced current to the Cl^- channel blockers was niflumic acid≥NPPB>DPC>glibenclamide>>>DIDS.

[2] = target: T1, tetrameric channel (Homo sapiens, UniProt P23415); settings: lipid bilayers; cited from earlier work
T1 construct: 9-amino acid carrier template (tethers four peptide copies)

[3] = system: M2GlyR-stimulated Isc; assay: Effect of Cl- transport inhibitors on M2GlyR-stimulated Isc in MDCK monolayers; assay type: cell-based, canine
[4] = system: forskolin-stimulated current; settings: apical DPC, previously published dose response; cited from earlier work
[5] = system: MDCK monolayers; assay: Intracellular cAMP by radioimmunoassay in MDCK monolayers; assay type: cell-based, canine; settings: 10 μM forskolin, 2 hrs
Method: Cyclic adenosine monophosphate measurements. Confluent monolayers of MDCK cells were incubated in defined media (1.7 mL apical and 2.5 mL basolateral) or defined media containing either 10 μM basolateral forskolin or 500 μM apical C-K4 -[…] (SEQ ID NO: 7) for two hours. Monolayers were rinsed in Ca^+2 -, Mg^+2 -tree phosphate buffered saline (PBS), then treated with 5% trichloroacetic acid (TCA) to deactivate endogenous phosphodiesterases. […] Intracellular cAMP remained in the aqueous phase. After the water and ether phases separated, the water phase was collected. Relative levels of intracellular cAMP were determined by radioimmunoassay (Biomedical Technology Inc, Stoughton, Mass.) using methods previously described (Krishna and Terranova; 1987).

[6] = system: MDCK monolayers; assay: Fluid secretion / fluid transport by MDCK monolayers (24 hr collection); settings: 500 μM apical peptide or 10 μM basolateral forskolin, n = 12 (Table 6)
[7] = 100 μM inhibitor apical for 20 minutes after 100 μM C-K4-M2GlyR, negative = inhibition
[8] = 100 μM basolateral bumetanide after 100 μM apical SEQ ID NO: 7, n = 8
[9] = 100 μM basolateral bumetanide after 100 μM apical SEQ ID NO: 7, n = 8, listed as bumetanide

T1 sequence (P23415 278-300 limits assumed): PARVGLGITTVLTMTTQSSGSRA

O=C(O)c1cc([N+](=O)[O-])ccc1NCCCc1ccccc1 [NPPB, 5-nitro-2-(3-phenylpropylamino)-benzoate]
100 μM inhibitor (percent change) in ISC [1, 7]: -55.2 ± 4.5%

O=C1C[C@@H]2OCC=C3CN4CC[C@]56c7ccccc7N1[C@H]5[C@H]2[C@H]3C[C@H]46 [Strychnine]
block of the tetrameric channel [2]: does not block

Cc1cccc(C)c1NC(=O)C[N+](C)(C)C [QX-222]
block of the tetrameric channel [2]: not blocked

O=C(O)c1cccnc1Nc1cccc(C(F)(F)F)c1 [Niflumic acid, niflumic acid]
block of the tetrameric channel [2]: blocked | inhibition at 100 µM ([1]; Canis lupus familiaris, MDCK, 20 min, heading: 100 inhibitor in ISC, 100 μM inhibitor apical for 20 minutes after 100 μM C-K4-M2GlyR, negative = inhibition, read-out: 100 μM inhibitor (percent change) in ISC): 57.1 ± 3.8%

O=C(O)c1ccccc1Nc1ccccc1 [DPC, diphenylamine-2-carboxylate]
fraction of stimulated current remaining ([1]; 100 μM apical DPC): 68±2% | 100 μM inhibitor (percent change) in ISC [1, 7]: -38.0 ± 0.8% | fraction of stimulated current remaining ([1]; 1 mM apical DPC): 41±6% | fraction of stimulated current remaining ([1]; 3 mM apical DPC): 26±5% | DPC concentration sufficient to return Isc to the control level ([3]; apical DPC after M2GlyR, four experiments): < 1 mM | dose of DPC required to significantly inhibit the forskolin-stimulated current [4]: 3 mM

C=C[C@@]1(C)CC(=O)[C@]2(O)[C@@]3(C)[C@@H](O)CCC(C)(C)[C@@H]3[C@H](O)[C@H](OC(C)=O)[C@@]2(C)O1 [forskolin]
increase of cAMP levels above the control [5]: 266% | fluid transport by MDCK monolayers [6]: 0.47 ± 0.05 μL/hr/cm^2

O=C(O)c1c2ccccc2cc2ccccc12 [9-AC, 9-anthracene carboxylic acid]
block of the tetrameric channel [2]: blocked

CCCCNc1cc(C(=O)O)cc(S(N)(=O)=O)c1Oc1ccccc1 [Bumetanide, bumetanide]
ISC after bumetanide [1, 8]: 1.4 ± 0.4 μA/cm^2 | Rtc after bumetanide [1, 8]: 2145 ± 474 Ohms.cm^2 | Vtc after bumetanide [1, 8]: -2.8±0.6 mV | ISC after bumetanide [1, 9]: 1.4 μA/cm^2 | Rtc after bumetanide [1, 9]: not significant | inhibition of the peptide-generated Isc ([1]; 100 μM basolateral bumetanide, n = 8): 97% | effect on the peptide-generated current ([1]; 100 μM basolateral bumetanide, typical experiment FIG. 6): blocked the peptide-generated current | Isc after subsequent addition of bumetanide ([3]; 100 μM basolateral bumetanide after M2GlyR, five experiments): 1.3±0.3 μA/cm^2

COc1ccc(Cl)cc1C(=O)NCCc1ccc(S(=O)(=O)NC(=O)NC2CCCCC2)cc1 [Glibenclamide, glibenclamide]
percent change in Isc at 100 µM ([1]; Canis lupus familiaris, MDCK, 20 min, 100 μM inhibitor apical for 20 minutes after 100 μM C-K4-M2GlyR, negative = inhibition): -18 ± 3.1%
